According to patent publication US4632828A, “Pharmaceutical composition” (priority 1984, dated 1986):

Columns and labels:
[1] = Differential Scanning Calorimetry of MAP/swellable polymer systems; type: physicochemical; conditions: DSC; for % Residual of Original Heat of Fusion: relative to pure crystalline MAP
Text: Alternatively, the grinding of the MAP-swellable polymer mixture can be stopped at any time the original crystalline form of MAP has been transformed into another, more energetic form.

[2] = Solubility (saturation concentration) of MAP/swellable polymer systems; type: physicochemical; conditions: pH 5.5 phosphate buffer, 37° C.
Protocol: The flasks were placed in a shaking thermostated apparatus and aliquots of sample solutions were taken by filtering through a Millipore membrane. The concentration of MAP in the filtered aliquot was determined both by spectrophotometry (SP8-100, Pye Unicam), after dilution with methanol, and by HPLC (column: Spherisorb S30DS2, Phase Sep.; mobile phase: acetonitrile/water 70/30 v/v; flow rate: 1 ml/min; U.V. detection, λ=242 nm), after dilution with acetonitrile.

Row | Structure (SMILES) | Heat of Fusion [1] | Melting Point [1] | % Residual of Original Heat of Fusion [1] | Melting Point ([1]; listed as pure MAP) | Solubility ([2]; 5 min) | Solubility ([2]; 15 min) | Solubility ([2]; 1 hr) | Solubility ([2]; 6 hrs)
1 | CC(=O)O[C@]1(C(C)=O)CC[C@H]2[C@@H]3C[C@H](C)C4=CC(=O)CC[C@]4(C)[C@H]3CC[C@@]21C [Micronized pure MAP, 6α-methyl, 17α-hydroxy-progesterone acetate] | 82.798 J/g | 205.3 °C | 94.1% |  |  |  |  | 
2 | CC(=O)O[C@]1(C(C)=O)CC[C@H]2[C@@H]3C[C@H](C)C4=CC(=O)CC[C@]4(C)[C@H]3CC[C@@]21C [Pure crystalline MAP, 6α-methyl, 17α-hydroxy-progesterone acetate] | 88.003 J/g | 205-206 °C | 100% | 205.6 °C | < 0.04 µg/mL | 0.32 µg/mL | 0.68 µg/mL | 1.00 µg/mL
